Where two headings read alike, the source gives them in different places.
Target: T1, MRGPRX4 + RAMP2 (Homo sapiens, UniProt Q96LA9)
T1 construct: expressed in transfected cells; host or cells: HEK293T
Assay: IP1 accumulation, MRGPRX4 coexpressed with RAMP2
Type: cell-based
Details: 2 h
Method: HEK293T cells were transfected with 1 pg/cell of MRGPRX4 DNA, and the amount of DNA was kept constant at 2 pg/cell with pcDNA3.1(+) empty vector, unless otherwise specified. Twenty four hours after transfection, IP1 assay was performed as previously described ([51]). When applicable, cells were treated with 1 μM YM254890 (YM) or different concentrations of U73122 for 1 h prior to addition of agonist or buffer. After incubation for 2 h, HTRF reagents and IP1 calibration standards were added and incubated for 2 h in the dark at room temperature. Time-resolved fluorescence signals were read on the BioTek Synergy NEO-TRF Hybrid multi-mode reader (BioTek Instruments). All data were carried out in three independent experiments with three technical replicate each.
For RAMP DNA titration assay, HEK293T cells were cotransfected with a constant amount of 1 pg/cell of FLAG-MRGPRX4-GFP10-1D4 to which a serial dilution of 1, 0.75, 0.5, 0.25, or 0 pg/cell of each HA-RAMP-OLLAS was added. For a homogenous transfection of MRGPRX4, a master mix of MRGPRX4 DNA was made prior to addition of the RAMP DNA. […]
Data reduction, standard calibration, and transformation of HTRF data were performed as previously described ([51]). Normalized IP1 values were calculated relative to the unstimulated mock-transfected cells (set to 0%) and fully stimulated MRGPRX4 (alone if applicable) (set to 100%).

T1 sequence (Q96LA9 whole entry): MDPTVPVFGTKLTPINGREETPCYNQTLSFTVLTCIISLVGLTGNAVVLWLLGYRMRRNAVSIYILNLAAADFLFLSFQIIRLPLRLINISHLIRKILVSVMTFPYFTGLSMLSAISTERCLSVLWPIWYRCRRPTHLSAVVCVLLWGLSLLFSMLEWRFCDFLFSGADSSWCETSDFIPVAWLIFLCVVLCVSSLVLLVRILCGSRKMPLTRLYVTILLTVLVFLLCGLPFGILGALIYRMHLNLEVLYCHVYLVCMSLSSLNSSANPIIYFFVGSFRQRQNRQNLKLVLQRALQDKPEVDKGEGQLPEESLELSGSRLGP

Work on `CC(C)[C@H]1CC[C@H](C(=O)N[C@H](Cc2ccccc2)C(=O)O)CC1` [Nateglinide] yielded an activation at 100 µM (log [nateglinide] (M) -4, MRGPRX4+RAMP2 0.75pg 1:0.75, Supplementary Figure 5e, read-out: IP1 accumulation (normalized)) of 67.4%, an activation at 100 µM (log [nateglinide] (M) -4, MRGPRX4+RAMP2 1pg 1:1, Supplementary Figure 5e, 5g, read-out: IP1 accumulation (normalized)) of 56.4% and an activation at 20 µM (log [nateglinide] (M) -4.69897, MRGPRX4+RAMP2 0.5pg 1:0.5, Supplementary Figure 5e, read-out: IP1 accumulation (normalized)) of 67.3%. The activation at 20 µM (log [nateglinide] (M) -4.69897, MRGPRX4+RAMP2 0.75pg 1:0.75, Supplementary Figure 5e, read-out: IP1 accumulation (normalized)) was 50.8%, the activation at 20 µM (log [nateglinide] (M) -4.69897, MRGPRX4+RAMP2 1pg 1:1, Supplementary Figure 5e, 5g, read-out: IP1 accumulation (normalized)) was 31.2% and the activation at 4 µM (log [nateglinide] (M) -5.39794, MRGPRX4+RAMP2 0.5pg 1:0.5, Supplementary Figure 5e, read-out: IP1 accumulation (normalized)) was 27.4%. It also gave an activation at 4 µM (log [nateglinide] (M) -5.39794, MRGPRX4+RAMP2 0.75pg 1:0.75, Supplementary Figure 5e, read-out: IP1 accumulation (normalized)) of 22.7%, an activation at 4 µM (log [nateglinide] (M) -5.39794, MRGPRX4+RAMP2 1pg 1:1, Supplementary Figure 5e, 5g, read-out: IP1 accumulation (normalized)) of 15% and an activation at 0.8 µM (log [nateglinide] (M) -6.09691, MRGPRX4+RAMP2 0.5pg 1:0.5, Supplementary Figure 5e, read-out: IP1 accumulation (normalized)) of 14.1%. It also gave an activation at 0.8 µM (log [nateglinide] (M) -6.09691, MRGPRX4+RAMP2 0.75pg 1:0.75, Supplementary Figure 5e, read-out: IP1 accumulation (normalized)) of 9.77%, an activation at 0.8 µM (log [nateglinide] (M) -6.09691, MRGPRX4+RAMP2 1pg 1:1, Supplementary Figure 5e, 5g, read-out: IP1 accumulation (normalized)) of 5.12% and an activation at […] (log [nateglinide] (M) -6.79588, MRGPRX4+RAMP2 0.5pg 1:0.5, Supplementary Figure 5e, read-out: IP1 accumulation (normalized)) of 8.46%. The activation at […] (log [nateglinide] (M) -6.79588, MRGPRX4+RAMP2 0.75pg 1:0.75, Supplementary Figure 5e, read-out: IP1 accumulation (normalized)) was 6.53%, the activation at […] (log [nateglinide] (M) -6.79588, MRGPRX4+RAMP2 1pg 1:1, Supplementary Figure 5e, 5g, read-out: IP1 accumulation (normalized)) was 3.5% and the activation at 0.032 µM (log [nateglinide] (M) -7.49485, MRGPRX4+RAMP2 0.5pg 1:0.5, Supplementary Figure 5e, read-out: IP1 accumulation (normalized)) was 8.31%. The activation at 0.032 µM (log [nateglinide] (M) -7.49485, MRGPRX4+RAMP2 0.75pg 1:0.75, Supplementary Figure 5e, read-out: IP1 accumulation (normalized)) was 6.16%, the activation at 0.032 µM (log [nateglinide] (M) -7.49485, MRGPRX4+RAMP2 1pg 1:1, Supplementary Figure 5e, 5g, read-out: IP1 accumulation (normalized)) was 3.54% and the activation at 100 µM (ratio MRGPRX4:RAMP2 1:0.25, log [Nateglinide] (M) -4, Fig S3b, read-out: IP1 accumulation) was 98.8%. For the same molecule, the activation at 20 µM (ratio MRGPRX4:RAMP2 1:0.25, log [Nateglinide] (M) -4.69897, Fig S3b, read-out: IP1 accumulation) was 58.9%, the activation at 4 µM (ratio MRGPRX4:RAMP2 1:0.25, log [Nateglinide] (M) -5.39794, Fig S3b, read-out: IP1 accumulation) was 38% and the activation at 0.8 µM (ratio MRGPRX4:RAMP2 1:0.25, log [Nateglinide] (M) -6.09691, Fig S3b, read-out: IP1 accumulation) was 25.5%. The activation at […] (ratio MRGPRX4:RAMP2 1:0.25, log [Nateglinide] (M) -6.79588, Fig S3b, read-out: IP1 accumulation) was 22.6%, the activation at 0.032 µM (ratio MRGPRX4:RAMP2 1:0.25, log [Nateglinide] (M) -7.49485, Fig S3b, read-out: IP1 accumulation) was 20.5% and the activation at 100 µM (ratio MRGPRX4:RAMP2 1:0.5, log [Nateglinide] (M) -4, Fig S3b, read-out: IP1 accumulation) was 67.8%. For the same molecule, the activation at 20 µM (ratio MRGPRX4:RAMP2 1:0.5, log [Nateglinide] (M) -4.69897, Fig S3b, read-out: IP1 accumulation) was 62.1%, the activation at 4 µM (ratio MRGPRX4:RAMP2 1:0.5, log [Nateglinide] (M) -5.39794, Fig S3b, read-out: IP1 accumulation) was 36.6% and the activation at 0.8 µM (ratio MRGPRX4:RAMP2 1:0.5, log [Nateglinide] (M) -6.09691, Fig S3b, read-out: IP1 accumulation) was 20.3%. It also gave an activation at […] (ratio MRGPRX4:RAMP2 1:0.5, log [Nateglinide] (M) -6.79588, Fig S3b, read-out: IP1 accumulation) of 15.7%, an activation at 0.032 µM (ratio MRGPRX4:RAMP2 1:0.5, log [Nateglinide] (M) -7.49485, Fig S3b, read-out: IP1 accumulation) of 15.3% and an activation at 100 µM (ratio MRGPRX4:RAMP2 1:1, log [Nateglinide] (M) -4, Fig S3b, read-out: IP1 accumulation) of 40.5%. For the same molecule, the activation at 20 µM (ratio MRGPRX4:RAMP2 1:1, log [Nateglinide] (M) -4.69897, Fig S3b, read-out: IP1 accumulation) was 43.2%, the activation at 4 µM (ratio MRGPRX4:RAMP2 1:1, log [Nateglinide] (M) -5.39794, Fig S3b, read-out: IP1 accumulation) was 21.9% and the activation at 0.8 µM (ratio MRGPRX4:RAMP2 1:1, log [Nateglinide] (M) -6.09691, Fig S3b, read-out: IP1 accumulation) was 14.1%. It also gave an activation at […] (ratio MRGPRX4:RAMP2 1:1, log [Nateglinide] (M) -6.79588, Fig S3b, read-out: IP1 accumulation) of 11.3%, an activation at 0.032 µM (ratio MRGPRX4:RAMP2 1:1, log [Nateglinide] (M) -7.49485, Fig S3b, read-out: IP1 accumulation) of 11.1% and an activation at 100 µM (ratio MRGPRX4:RAMP2 1:2, log [Nateglinide] (M) -4, Fig S3b, read-out: IP1 accumulation) of 28%. For the same molecule, the activation at 20 µM (ratio MRGPRX4:RAMP2 1:2, log [Nateglinide] (M) -4.69897, Fig S3b, read-out: IP1 accumulation) was 15.2%, the activation at 4 µM (ratio MRGPRX4:RAMP2 1:2, log [Nateglinide] (M) -5.39794, Fig S3b, read-out: IP1 accumulation) was 6.45% and the activation at 0.8 µM (ratio MRGPRX4:RAMP2 1:2, log [Nateglinide] (M) -6.09691, Fig S3b, read-out: IP1 accumulation) was 4.89%. The activation at […] (ratio MRGPRX4:RAMP2 1:2, log [Nateglinide] (M) -6.79588, Fig S3b, read-out: IP1 accumulation) was 3.86%.
